Entries after “also recorded” stand apart in the source; their conditions may differ. One block for each molecule: values may come before it.
Assays:
normal, young adult mice = details: delivered directly to the hippocampus, intraventricularly or intraperitoneally (Scott et al. 2002); cited from earlier work
[1] = test system: CRE-luciferase reporter gene in human neuroblastoma cells; assay: CRE-luciferase reporter gene assay, forskolin-stimulated human neuroblastoma cells; assay type: cell-based; details: for effect on CRE-luciferase expression: FIG. 2, in words; for increase of forskolin-induced CRE-luciferase expression above forskolin alone: drug for two hours before suboptimal dose of forskolin, assayed 4 hours after forskolin stimulation (FIG. 2A)
From the text: FIG. 2A is a bar graph representation depicting results showing that the PDE4 inhibitors rolipram and HT0712 enhance forskolin-induced gene expression in human neuroblastoma cells. Relative light units (RLU) emitted from luciferase were quantified in human neuroblastoma cells stably transfected with a CRE-luciferase reporter gene and exposed to vehicle alone or drug (HT0712 or rolipram) for two hours before stimulation by a suboptimal dose of forskolin.
A high-throughput drug screen was accomplished using human neuroblastoma cells, which were stably transfected with a luciferase reporter gene driven by a CRE (cAMP response element) promoter (a drug screen for enhancers of CREB function) (Scott, R. et al., J. Mol. Neurosci., 19:171-177 (2002)). Cells were exposed to drug for two hours and then stimulated with a suboptimal dose of forskolin for another four hours. […] Among the dozens of confirmed hits for several molecular targets identified from this screen, inhibitors of PDE4 were numerous.

[2] = Half-life (wash-out consideration); details: mouse, in vivo
Method: HT0712 was administered intraperitoneally (i.p.) at doses: 0.001 mg/kg; 0.005 mg/kg; 0.01 mg/kg; 0.05 mg/kg; 0.1 mg/kg, 0.15 mg/kg and 0.2 mg/kg. Rolipram (Sigma) was administered i.p. at dose 0.1 mg/kg. Drug compounds were injected with one week interval to allow sufficient wash-out time (the half-life for HT0712 and Rolipram <3 hours). In addition, vehicle- and drug-injected mice were counterbalanced from experiment to experiment. Such design allowed at least two weeks wash-out time between repeated usages of high doses.

CBP^+/− mutant mice = assay: Object recognition task, long-term memory in CBP+/− mutant mice; assay type: in vivo; details: for memory retention, drug-treated CBP+/− mutants versus drug-treated wildtype mice / 24 hour memory retention (Discrimination Index) versus vehicle-injected mutants: 0.1 mg/kg i.p. 20 minutes before 15 minute training, tested 24 hours later (FIG. 4); for 24 hour memory retention (Discrimination Index) versus vehicle-injected mutants: p<0.05; for 24 hour memory retention versus vehicle-alone group: 3.5 minute training (FIG. 6)
From the text: (§1) Generation of CBP^+/- mice was described by Oike et al. (Human Molecular Genetics, 8:387-396 (1999)). […] For these studies, animals were generated by crossing CBP^+/- mice to C57BL/6 females (Jackson laboratory). The mice were genotyped with a PCR protocol as described previously (Oike, Y. et al., Human Molecular Genetics, 8:387-396 (1999)). Age-(12 to 14 weeks old by the time of handling) and gender-matched mutant mice and wildtype littermates were used for all experiments. Mice were handled for 3-5 minutes for 5 days. […] The first set was used for experiments summarized in FIGS. 3 and 4 (n=10 per genotype). The second set was used for the experiment summarized in FIG. 5 (wildtype mice, n=20). For each experiment, the same set of animals was used repeatedly with different (new) sets of objects for each repetition. […] (iii) each experimental condition was replicated 2-4 independent times, and replicate days were added to generate final number of subjects. Five-to-eight sessions were performed on each set of mice. Each mouse was trained and tested no more than once per week and with a one-week interval between testing. In experiments with drug-injections (see below), vehicle-injected mice and high/low-dose-injected mice, were counterbalanced. In each experiment, the experimenter was unaware (blind) to the treatment of the subjects during training and testing. […] Mice were presented with two objects, one of which was used during training, and thus was 'familiar' and the other of which was novel (e.g. a small pyramid-shape object). The test objects were divided into ten sets of two “training” plus on “testing” objects, and a new set of objects was used for each training session. After each experimental subject, the apparatus and the objects were cleaned with 90% ethanol, dried and ventilated for a few minutes. […] In addition, vehicle- and drug-injected mice were counterbalanced from experiment to experiment. Such design allowed at least two weeks wash-out time between repeated usages of high doses. […] The experiments were videotaped via an overhead video camera system. Types were reviewed by a blinded observer and the following behavioral parameters were determined: time of exploration of an each object; the total time of exploration of the objects; number of approaches to the objects; and time (latency) to first approach to an object. The discrimination index was determined as described previously (Ennaceur, A. & Aggleton, J. P., Behav. Brain Res., 88:181-193 (1997)). The data were analyzed by Student's unpaired t test using statistical software package ([…] Institute, Inc). All values in the text and figure legends are expressed as mean±SEM.

aged rats = details: Barad et al. 1998; cited from earlier work
[3] = test system: somatostatin, an endogenous cAMP-responsive gene, in human neuroblastoma cells; assay: Real-time PCR of somatostatin expression, forskolin-stimulated human neuroblastoma cells; assay type: cell-based; details: for effect on expression of CRE-dependent endogenous gene somatostatin: FIG. 2, in words; for increase in forskolin-induced expression of somatostatin: real-time PCR, ΔCt above vehicle alone (FIG. 2B)
From the text: FIG. 2B is a bar graph representation depicting results showing that the PDE4 inhibitors rolipram and HT0712 enhance forskolin-induced gene expression in human neuroblastoma cells. Real-time PCR was used to quantify expression of somatostatin, an endogenous cAMP-responsive gene. Expression levels induced by forskolin or by forskolin+drug are quantified as differences in threshold cycle number (ΔCt) above vehicle alone control groups.

wildtype mice = assay: Object recognition task, long-term memory in wildtype mice; assay type: in vivo; details: for 24 hour memory retention versus vehicle-alone group: 3.5 minute training (FIG. 6)
From the text: as §1

[4] = i.p., 3.5 minute training, 24-hour memory (FIG. 6)

half-life [2]: < 3 h
SMILES: COc1ccc(C2CNC(=O)C2)cc1OC1CCCC1 (stereo not drawn) [rolipram, reference compound]
long-term memory formation after contextual fear conditioning (normal, young adult mice): enhanced
effect on CRE-luciferase expression [1]: robust effects
increase of forskolin-induced CRE-luciferase expression above forskolin alone [1]: 1.9 fold
memory retention, drug-treated CBP+/− mutants versus drug-treated wildtype mice (CBP^+/− mutant mice): did not differ significantly
24 hour memory retention (Discrimination Index) versus vehicle-injected mutants (CBP^+/− mutant mice): restored 24-hour memory; also recorded: significantly higher
age-dependent loss of hippocampal-dependent memory and cellular long-term potentiation (aged rats): ameliorates
effect on expression of CRE-dependent endogenous gene somatostatin [3]: robust effects
increase in forskolin-induced expression of somatostatin [3]: 2.3 fold

half-life [2]: < 3 h
SMILES: COc1ccc([C@H]2CNC(=O)[C@H](Cc3cccc(C)c3)C2)cc1OC1CCCC1 [HT0712, (3S,5S)-5-(3-cyclopentyloxy-4-methoxy-phenyl)-3-(3-methyl-benzyl)-piperidin-2-one]
long-term memory formation after contextual fear conditioning (normal, young adult mice): enhanced
effect on CRE-luciferase expression [1]: robust effects
increase of forskolin-induced CRE-luciferase expression above forskolin alone [1]: 1.9 fold
24 hour memory retention versus vehicle-alone group (CBP^+/− mutant mice; 0.05 mg/kg i.p., p=0.79): did not; also recorded: failed to enhance memory
memory retention, drug-treated CBP+/− mutants versus drug-treated wildtype mice (CBP^+/− mutant mice): did not differ significantly
24 hour memory retention (Discrimination Index) versus vehicle-injected mutants (CBP^+/− mutant mice): restored 24-hour memory; also recorded: significantly higher
24 hour memory retention versus vehicle-alone group (CBP^+/− mutant mice; 0.10 mg/kg i.p., p<0.0001): higher
24 hour memory retention versus vehicle-alone group (CBP^+/− mutant mice; 0.15 mg/kg i.p., p<0.0001): higher
24 hour memory retention versus vehicle-alone group (CBP^+/− mutant mice; 0.2 mg/kg i.p., p<0.0001): higher
dose at which memory enhancement was first seen (initial effective dose) (CBP^+/− mutant mice; [4]): 0.10 mg/kg
peak effective dose (CBP^+/− mutant mice; [4]): 0.15 mg/kg
24 hour memory retention versus vehicle alone (wildtype mice; 0.05 mg/kg i.p. 20 min before 3.5 minute training (FIG. 5), p<0.05): significantly increased; also recorded: significantly higher
24 hour memory retention versus vehicle-alone group (wildtype mice; 0.05 mg/kg i.p., p<0.005): significant enhancement; also recorded: higher
24 hour memory retention versus vehicle alone (wildtype mice; 0.10 mg/kg i.p. 20 min before 3.5 minute training (FIG. 5), p<0.0001): significantly increased; also recorded: significantly higher
24 hour memory retention versus vehicle-alone group (wildtype mice; 0.10 mg/kg i.p., p<0.0001): higher
24 hour memory retention versus vehicle alone (wildtype mice; 0.15 mg/kg i.p. 20 min before 3.5 minute training (FIG. 5), p<0.001): significantly increased; also recorded: significantly higher
24 hour memory retention versus vehicle-alone group (wildtype mice; 0.15 mg/kg i.p., p<0.005): higher
24 hour memory retention versus vehicle-alone group (wildtype mice; 0.2 mg/kg i.p., p<0.005): higher
24 hour memory retention versus vehicle alone (wildtype mice; 0.50 mg/kg i.p., 3.5 minute training (FIG. 5)): failed to produce any memory enhancement
24 hour memory retention versus vehicle alone (wildtype mice; below 0.05 mg/kg i.p., 3.5 minute training (FIG. 5)): failed to produce any memory enhancement
peak effective dose (wildtype mice; [4]): 0.10 mg/kg
effect on expression of CRE-dependent endogenous gene somatostatin [3]: robust effects
increase in forskolin-induced expression of somatostatin [3]: 4.6 fold
